# Assay type: in vivo, rat
# Details: male and female rats, D+1 to D+7 after oral tube-feeding
# Procedure: The configurational stereoisomers of flocoumafen are separated by high-pressure liquid chromatography using a LUX® Cellulose-4 chiral column (00F-4490-B0, Phenomenex, Le Pecq, France) as stationary phase and a mixture formed from acetonitrile (A) and water comprising 0.1% by volume of formic acid (B), with an AB volume ratio of 92/8, as mobile phase with a flow rate of the liquid mobile phase in the chromatography column of 0.25 mL/minute. 1 μL of extract comprising flocoumafen at a concentration of 1 μg/mL of acetonitrile is injected. Detection is performed by tandem mass spectrometry (MS/MS) in negative electrospray ionization (ESI) mode. The temperature of the nebulizer gas is 350° C. and its flow rate is 8 L/minute. The pressure of the nebulizer gas is brought to 2700 hPa. In particular, the MRM (“Multiple Reaction Monitoring”) transitions m/z 541.1→382.1 and m/z 541.1→161, corresponding to the flocoumafen signal, are detected.
# About 0.525 g(±0.025 g) of rat liver is weighed out accurately and placed in a 50 mL polypropylene tube. 10 mL of acetone are added and the suspension is homogenized using an UltraTurrax® homogenizer/disperser for a time of about 30 seconds. The homogenizer/disperser shaft is rinsed with hot water and then twice with 20 mL of acetone in a polypropylene tube. […]
smiles,measurement,value
"O=c1oc2ccccc2c(O)c1C1CC(c2ccc(OCc3ccc(C(F)(F)F)cc3)cc2)Cc2ccccc21 (single isomer, unassigned) [Enantiomer E3, flocoumafen]","Persistence in the liver (in words, relative to enantiomer E4 and flocoumafen)","lower than the persistence of enantiomer E4 of said diastereoisomer D1,4 and lower than the persistence of flocoumafen"
